These results are taken from US20230193336A1, “ENASIDENIB GLYCOSIDES AND METHODS OF TREATING DISEASES ASSOCIATED WITH ISOCITRATE DEHYDROGENASE (IDH) DYSFUNCTION” (Double Rainbow Biosciences Inc., priority 2020, published 2023).

SMILES strings stand for the structures. Converted amounts (≈) assume the structure as drawn. Read-outs that look alike come from different tables or passages of the source.

For data set [1] the following is noted: in vivo; cited from earlier work.
Data set [2] deals with cancer cell lines containing endogenous or exogenously expressed mutant IDH2. As to conditions: cancer cell lines with endogenous or exogenously expressed mutant IDH2; cited from earlier work.
For data set [3] the following is noted: cited from earlier work.
Data set [4] deals with AML patients with an IDH2 mutation. Conditions: cited from earlier work.
A further data set has as its system human AML patients. As to conditions: cited from earlier work.
Data set [5] deals with mouse xenograft models of AML. Conditions: cited from earlier work.
The subject of data set [6] is IDH2 R140 and R172 mutant homodimers or heterodimers. Conditions: cited from earlier work.
The conditions of data set [7]: clinical trials; cited from earlier work.
The next data set addresses T1, UGT1A1 (Homo sapiens, UniProt P22309).
T1 sequence (P22309 26-533): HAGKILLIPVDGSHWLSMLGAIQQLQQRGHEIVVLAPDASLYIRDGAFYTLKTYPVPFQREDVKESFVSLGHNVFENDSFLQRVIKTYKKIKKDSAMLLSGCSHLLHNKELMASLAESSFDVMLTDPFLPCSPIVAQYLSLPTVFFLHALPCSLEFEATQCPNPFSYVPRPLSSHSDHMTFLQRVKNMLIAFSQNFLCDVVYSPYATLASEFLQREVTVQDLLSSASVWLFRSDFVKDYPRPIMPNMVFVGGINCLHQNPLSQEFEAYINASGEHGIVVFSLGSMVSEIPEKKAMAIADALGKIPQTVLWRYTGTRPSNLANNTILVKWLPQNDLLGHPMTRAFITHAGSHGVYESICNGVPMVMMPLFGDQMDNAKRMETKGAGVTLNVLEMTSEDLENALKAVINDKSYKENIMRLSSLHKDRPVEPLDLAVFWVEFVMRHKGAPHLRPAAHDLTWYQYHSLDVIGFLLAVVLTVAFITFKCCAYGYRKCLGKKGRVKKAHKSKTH
Conditions: side effect: abnormal bilirubin metabolism; cited from earlier work.

The nature of a further data set: physchem. The format is physicochemical. The method, then: The water solubility of enasidenib and enasidenib-O-D-glucoside was investigated by suspending excess amounts of the two compounds in 200 μl of distilled water in a microcentrifuge tube at 25° C. for 12 h. Afterwards, each sample was centrifuged at 12,000×g for 20 min. The supernatant of each sample was then filtered through a 0.45-μm membrane filter and the concentration of the compound in the supernatant, which is defined as the water-soluble component, was measured by its absorbance at 254 nm using HPLC, and its absolute solubility was calculated in reference to the concentration-absorbance standard curve.

The next data set deals with cell culture assays. Conditions: cited from earlier work.
For data set [8] the following is noted: 100 mg dose; cited from earlier work.

Turning to `C[C@@H](Nc1nc(N[C@H](C)C(F)(F)F)nc(-c2cccc(Cl)n2)n1)C(F)(F)F` [AG-881], the blood-brain barrier penetration entry in data set [1] is on record as “can penetrate the blood-brain barrier”.

With `CC(C)(O)CNc1nc(Nc2ccnc(C(F)(F)F)c2)nc(-c2cccc(C(F)(F)F)n2)n1` [enasidenib, Enasidenib], the 2-HG concentration entry (in data set [2]; in the data set on human AML patients; in data set [5]) was “reduced the 2-HG concentration” in each case. Moreover, the aqueous solubility result in [3] is “less than 74 μg/mL”; in data set [3] (pH 7.4 (Yen et al. 2017)) it was 23 µM (≈ 10.9 µg/mL). Further, in [4] (human, in vivo), the “AML patients with an IDH2 mutation who experienced complete remission” value is given as 19.3%. In addition, the overall response rate in [4] (single therapeutic, AML and relapsed/refractory-AML patients with an IDH2 mutation) was 41%. In addition, the “lower inhibitory concentration for mutant IDH2 compared to the wild type IDH2” value in data set [6] (R140 and R172 mutant homodimers or heterodimers versus wild type IDH2) was “approximately 40 fold”. The inhibition kinetics result in data set [6] (kinetics assays) is “slow on/slow off tight binding inhibition kinetics”. Moreover, the “patients who completely discontinued enasidenib” value in [7] was 17%. Further, the “patients who had to stop taking the drug as a result of adverse events” value in [7] is 43%. Besides, the “patients with serious adverse events” value in [7] is “approximately 77%”. Further, the UGT1A1 inhibition entry at UGT1A1 was “inhibition of UGT1A1”. The same molecule came in with a solubility at 12 h in “physchem” (25 °C, water, thermodynamic from solid) of 6 µg/mL (≈ 12.7 µM). Also, the differentiation result with cell culture assays is given as “induced differentiation”. Further, in data set [8], the oral bioavailability is recorded as 57%.

For the molecule `CC(C)(CNc1nc(Nc2ccnc(C(F)(F)F)c2)nc(-c2cccc(C(F)(F)F)n2)n1)OC1O[C@H](CO)[C@@H](O)[C@H](O)[C@H]1O` (stereo partly drawn) [enasidenib-O-D-glucoside], in “physchem”, the water solubility stood at 40 µg/mL (≈ 62.9 µM) and the “water solubility relative to enasidenib” value is on record as 7 times.
